Laboratory results from patent US11225477B2, “Inhibitors of influenza virus replication, application methods and uses thereof” (SUNSHINE LAKE PHARMA CO., LTD., priority 2015, dated 2022).

Experiments:
[1] = in vivo; conditions: SD, rat
Experimental: (§1) The compounds disclosed herein were administered in form of a saline solution containing 5% DMSO, 5% Kolliphor HS 15 and 90% Saline. […] Plasma samples were collected and stored at −20° C. or −70° C. until LC/MS/MS analysis.

[2] = SD, rat, in vivo; for F: po, 5 mg/kg
Experimental: as §1

[3] = system: virus H1N1 A/Weiss/43; assay: microbe, parasite or virus in culture; format: cell-based; conditions: Influenza A virus, 120 h; MDCK cells, H1N1 A/Weiss/43, Scheme 1: 8 concentrations 100 μM to 0.05 μM, 5 days, CCK-8
[4] = system: virus H1N1 A/Weiss/43; assay: microbe, parasite or virus in culture; format: cell-based; conditions: Influenza A virus, 120 h; MDCK cells, H1N1 A/Weiss/43, Scheme 2: 8 concentrations 50 nM to 0.023 nM, 5 days, CCK-8

SMILES | AUC(0-inf) ([1]; iv, 1 mg/kg) [ng·h/mL] | AUC(0-t) ([1]; iv, 1 mg/kg) [ng·h/mL] | Cmax ([1]; iv, 1 mg/kg) [ng/mL] | Tmax ([1]; iv, 1 mg/kg) [h] | Vd ([1]; iv, 1 mg/kg) [L/kg] | clearance ([1]; iv, 1 mg/kg) [mL/min/kg] | half-life ([1]; iv, 1 mg/kg) [h] | AUC(0-inf) ([1]; po, 5 mg/kg) [ng·h/mL] | AUC(0-t) ([1]; po, 5 mg/kg) [ng·h/mL] | Cmax ([1]; po, 5 mg/kg) [ng/mL] | Tmax ([1]; po, 5 mg/kg) [h] | half-life ([1]; po, 5 mg/kg) [h] | F [2] [%] | EC50 [3] [nM] | EC50 [4] [nM] | CL ([2]; iv, 1 mg/kg) [mL/min/kg]
CC(C)(C)[C@@H](CC(=O)O)Nc1nc(-c2c[nH]c3ncc(F)cc23)nc(-c2ccco2)c1F [Example 61, (R)-3-((5-fluoro-2-(5-fluoro-1H-pyrrolo[2,3-b]pyridin-3-yl)-6-(furan-2-yl)pyrimidin-4-yl)amino)-4,4-dimethylpentanoic Acid] | 4050 | 4030 | 8540 | 0.083 | 0.585 | 4.17 | 0.542 | 10700 | 10400 | 2710 | 1.5 | 5.95 | 53.1 | – | – | –
O=C(O)C1C2CCC(CC2)C1Nc1nc(-c2c[nH]c3ncc(F)cc23)nc2ccccc12 (racemic) [Example 1, (+/−)-trans-3-((2-(5-fluoro-1H-pyrrolo[2,3-b]pyridin-3-yl)quinazolin-4-yl)amino)bicyclo[2.2.2]octane-2-carboxylic Acid] | 5020 | 4960 | 5900 | 0.083 | 1.03 | 3.42 | 1.13 | 10600 | 10100 | 3130 | 0.833 | 1.48 | 42.1 | < 50 | – | –
O=C(O)C1C2CCC(CC2)C1Nc1cc(-c2ccco2)nc(-c2c[nH]c3ncc(F)cc23)n1 (racemic) [Example 9, (+/−)-trans-3-((2-(5-fluoro-1H-pyrrolo[2,3-b]pyridin-3-yl)-6-(furan-2-yl)pyrimidin-4-yl)amino)bicyclo[2.2.2]octane-2-carboxylic Acid] | 7350 | 7260 | 10900 | 0.083 | 0.551 | – | 1.52 | 17500 | 17400 | 5270 | 0.5 | 3.15 | 47.5 | – | 0.066 | 97.7
COc1ccc(-c2cc(NC3C4CCC(CC4)C3C(=O)O)nc(-c3c[nH]c4ncc(F)cc34)n2)cc1 (racemic) [Example 3, (+/−)-trans-3-((2-(5-fluoro-1H-pyrrolo[2,3-b]pyridin-3-yl)-6-(4-methoxyphenyl)pyrimidin-4-yl)amino)bicyclo[2.2.2]octane-2-carboxylic Acid] | – | – | – | – | – | – | – | – | – | – | – | – | – | < 50 | – | –
O=C(O)C1C2CCC(CC2)C1Nc1cc(-c2ccc(F)cc2)nc(-c2c[nH]c3ncc(F)cc23)n1 (racemic) [Example 6, (+/−)-trans-3-((2-(5-fluoro-1H-pyrrolo[2,3-b]pyridin-3-yl)-6-(4-fluorophenyl)pyrimidin-4-yl)amino)bicyclo[2.2.2]octane-2-carboxylic Acid] | – | – | – | – | – | – | – | – | – | – | – | – | – | < 50 | – | –
O=C(O)C1C2CCC(CC2)C1Nc1nc(-c2c[nH]c3ncc(F)cc23)ncc1F (racemic) [Control VX-787 (racemization), (+/−)-trans-3-((5-fluoro-2-(5-fluoro-1H-pyrrolo[2,3-b]pyridin-3-yl)pyrimidin-4-yl)amino)bicyclo[2.2.2]octane-2-carboxylic acid, reference compound] | – | – | – | – | – | – | – | – | – | – | – | – | 58.4 | – | – | –
O=C(O)C1C2CCC(CC2)C1Nc1cc(-c2cccc3c2oc2ccccc23)nc(-c2c[nH]c3ncc(F)cc23)n1 (racemic) [Example 18, (+/−)-trans-3-((6-(dibenzo[b,d]furan-4-yl)-2-(5-fluoro-1H-pyrrolo[2,3-b]pyridin-3-yl)pyrimidin-4-yl)amino)bicyclo[2.2.2]octane-2-carboxylic Acid] | 3190 | 3130 | 4470 | 0.083 | 0.598 | 5.3 | 4.37 | 6880 | 6840 | 1690 | 2 | 3.71 | 43.1 | – | – | –
O=C(O)C1C2CCC(CC2)C1Nc1cc(C2CC2)nc(-c2c[nH]c3ncc(F)cc23)n1 (racemic) [Example 68, (+/−)-trans-3-((6-cyclopropyl-2-(5-fluoro-1H-pyrrolo[2,3-b]pyridin-3-yl)pyrimidin-4-yl)amino)bicyclo[2.2.2]octane-2-carboxylic Acid] | 2880 | 2760 | 3750 | 0.083 | 0.551 | 5.86 | 2.01 | 8330 | 8310 | 2960 | 0.417 | 3.24 | 60.1 | – | – | –
O=C(O)C1C2CCC(CC2)C1Nc1nc(-c2c[nH]c3ncc(F)cc23)nc(C#Cc2ccccc2)c1F (racemic) [Example 63, (+/−)-trans-3-((5-fluoro-2-(5-fluoro-1H-pyrrolo[2,3-b]pyridin-3-yl)-6-phenylethynyl)pyrimidin-4-yl)amino)bicyclo[2.2.2]octane-2-carboxylic Acid] | 4750 | 4710 | 4990 | 0.083 | 0.416 | 3.55 | 3.85 | 15400 | 15300 | 3280 | 2 | 3.59 | 65 | – | – | –
O=C(O)C1C2CCC(CC2)C1Nc1cc(-c2ccccc2)nc(-c2c[nH]c3ncc(F)cc23)n1 (racemic) [Example 4, (+/−)-trans-3-((2-(5-fluoro-1H-pyrrolo[2,3-b]pyridin-3-yl)-6-phenylpyrimidin-4-yl)amino)bicyclo[2.2.2]octane-2-carboxylic Acid] | 4610 | 4540 | 5980 | 0.083 | 0.412 | 3.66 | 2.71 | 12800 | 12800 | 3480 | 0.667 | 2.97 | 56.4 | < 50 | 0.2 | –
O=C(O)C1C2CCC(CC2)C1Nc1nc(-c2c[nH]c3ncc(F)cc23)nc2c1CCCC2 (racemic) [Example 2, (+/−)-trans-3-((2-(5-fluoro-1H-pyrrolo[2,3-b]pyridin-3-yl)-5,6,7,8-tetrahydroquinazolin-4-yl)amino)bicyclo[2.2.2]octane-2-carboxylic Acid] | 3470 | 3440 | 4910 | 0.083 | 1.26 | 4.9 | 1.06 | 8180 | 8080 | 4020 | 0.417 | 1.33 | 47.1 | < 50 | – | –
Cn1ccc2c(NC3C4CCC(CC4)C3C(=O)O)nc(-c3c[nH]c4ncc(F)cc34)nc21 (racemic) [Example 65, (+/−)-trans-3-((2-(5-fluoro-1H-pyrrolo[2,3-b]pyridin-3-yl)-7-methyl-7H-pyrrolo[2,3-d]pyrimidin-4-yl)amino)bicyclo[2.2.2]octane-2-carboxylic Acid] | 5360 | 5340 | 6830 | 0.083 | 0.168 | 3.13 | 0.965 | 12100 | 12000 | 7940 | 0.417 | 1.14 | 44.9 | – | 0.66 | –
O=C(O)C1C2CCC(CC2)C1Nc1cc(-c2cc3ccccc3s2)nc(-c2c[nH]c3ncc(F)cc23)n1 (racemic) [Example 17, (+/−)-trans-3-((6-(benzo[b]thiophen-2-yl)-2-(5-fluoro-1H-pyrrolo[2,3-b]pyridin-3-yl)pyrimidin-4-yl)amino)bicyclo[2.2.2]octane-2-carboxylic Acid] | 2520 | 2510 | 4420 | 0.083 | 1.49 | 6.62 | 1.12 | 8360 | 8270 | 2660 | 0.5 | 0.911 | 66.4 | – | 0.54 | –
O=C(O)[C@H]1C2CCC(CC2)[C@@H]1Nc1cc(-c2ccco2)nc(-c2c[nH]c3nc(F)ccc23)n1 [Example 73, (2S,3S)-3-((2-(6-fluoro-1H-pyrrolo[2,3-b]pyridin-3-yl)-6-(furan-2-yl)pyrimidin-4-yl)amino)bicyclo[2.2.2]octane-2-carboxylic Acid] | 24800 | 24200 | 14800 | 0.083 | 0.212 | 0.681 | 1.41 | 52800 | 50600 | 9300 | 1.5 | 5.58 | 42.6 | – | – | –
Cc1nc2[nH]cc(-c3nc(NC4C5CCC(CC5)C4C(=O)O)cc(-c4ccccc4)n3)c2cc1F (racemic) [Example 80, (+/−)-trans-3-((2-(5-fluoro-6-methyl-1H-pyrrolo[2,3-b]pyridin-3-yl)-6-phenylpyrimidin-4-yl)amino)bicyclo[2.2.2]octane-2-carboxylic Acid] | 3380 | 3320 | 5630 | 0.083 | 1.5 | 4.94 | 1.53 | 10600 | 10100 | 3130 | 0.833 | 1.48 | 62.5 | – | – | –
